Assays:
[1] = tested on: wild type mice; test: Tail flick test, effect of morphine in wild type mice; assay type: in vivo; details: adult male wild type mice, 30 minutes after injection
Source text: (§1) Mice were gently held on a platform of an automated apparatus wrapped in a soft cloth. Their tails were exposed and extended in a straight line along a narrow groove. Once the tail was laying flat in the groove, the experimenter activated a high-intensity and heat producing narrow beam of light that was directed at a small spot in the tail. When the animal reached its pain threshold, a spinal reflex caused the tail to “flick” out of the light beam, automatically stopping a timer that started when the beam was activated. Each animal was tested 3 times, on different regions of the tail, and the median latency to “flick” was recorded as the nociceptive threshold. Experiments were performed blind with respect to the animals' genotype. The results are shown in FIGS. 1 and 2 in wild-type, heterozygous, and NMUR2 knock-out mice (FIG. 1) and for male and female mice (FIG. 2).
(§2) Adult male mice were treated with the mu opiate receptor agonist morphine at either 0, 2.5, 5, or 10 mg/kg sub-cutaneously. At each dose, 4 wild type mice and 4 knock-outs were treated. Tail flick latencies were determined 30 minutes after injection of morphine or vehicle, with a maximum flick latency of 15 seconds allowed to prevent tissue damage. […] The difference between the tail flick latencies of the two genotypes at 2.5 mg/kg morphine could not be accounted for by the baseline difference in tail flick latencies normally observed between the wild types and the knock-outs, both because the difference in latency was larger, and because the enhancement of morphine analgesia is significant while the mild baseline analgesia observed in the NmUR2 knock-outs was not.

[2] = tested on: NMUR2 knock-out mice; test: Tail flick test, effect of morphine in NMUR2 knock-out mice; assay type: in vivo; details: adult male NMUR2 knock-out mice, 30 minutes after injection
Source text: as §1, §2

CN1CC[C@]23c4c5ccc(O)c4O[C@H]2[C@@H](O)C=C[C@H]3[C@H]1C5 [morphine]
analgesia (tail flick latency) ([1]; 2.5 mg/kg sub-cutaneously): mild analgesia
analgesia (tail flick latency) ([1]; 5 mg/kg sub-cutaneously): maximal analgesia
analgesia (tail flick latency) ([1]; 10 mg/kg sub-cutaneously): maximal analgesia
analgesia (tail flick latency) ([2]; 2.5 mg/kg sub-cutaneously): augmented analgesia
tail flick latency ([2]; 2.5 mg/kg sub-cutaneously, maximum flick latency of 15 seconds allowed): 15 s
analgesia (tail flick latency) ([2]; 5 mg/kg sub-cutaneously): maximal analgesia
analgesia (tail flick latency) ([2]; 10 mg/kg sub-cutaneously): maximal analgesia
